Test results from ChEMBL document CHEMBL5465560, “Selectivity Literature for EUbOPEN Chemogenomic Library” (2024).
Blank lines part the entries; values can stand above or below the compound they belong to.

Assays:
[1] = target: Protein arginine N-methyltransferase 3 (Homo sapiens, UniProt O60678); experiment: Selectivity interaction (Scintillation proximity assay) EUB0000261b PRMT3
[2] = target: Protein arginine N-methyltransferase 1 (Homo sapiens, UniProt Q99873); experiment: Selectivity interaction (Scintillation proximity assay) EUB0000261b PRMT1
[3] = target: Protein arginine N-methyltransferase 8 (Homo sapiens, UniProt Q9NR22); experiment: Selectivity interaction (Scintillation proximity assay) EUB0000261b PRMT8
[4] = target: Protein arginine N-methyltransferase 6 (Homo sapiens, UniProt Q96LA8); experiment: Selectivity interaction (Scintillation proximity assay) EUB0000261b PRMT6
[5] = target: T1, Histone-arginine methyltransferase CARM1 (Homo sapiens, UniProt Q86X55); experiment: Selectivity interaction (Scintillation proximity assay) EUB0000261b CARM1
T1 sequence (Q86X55 whole entry): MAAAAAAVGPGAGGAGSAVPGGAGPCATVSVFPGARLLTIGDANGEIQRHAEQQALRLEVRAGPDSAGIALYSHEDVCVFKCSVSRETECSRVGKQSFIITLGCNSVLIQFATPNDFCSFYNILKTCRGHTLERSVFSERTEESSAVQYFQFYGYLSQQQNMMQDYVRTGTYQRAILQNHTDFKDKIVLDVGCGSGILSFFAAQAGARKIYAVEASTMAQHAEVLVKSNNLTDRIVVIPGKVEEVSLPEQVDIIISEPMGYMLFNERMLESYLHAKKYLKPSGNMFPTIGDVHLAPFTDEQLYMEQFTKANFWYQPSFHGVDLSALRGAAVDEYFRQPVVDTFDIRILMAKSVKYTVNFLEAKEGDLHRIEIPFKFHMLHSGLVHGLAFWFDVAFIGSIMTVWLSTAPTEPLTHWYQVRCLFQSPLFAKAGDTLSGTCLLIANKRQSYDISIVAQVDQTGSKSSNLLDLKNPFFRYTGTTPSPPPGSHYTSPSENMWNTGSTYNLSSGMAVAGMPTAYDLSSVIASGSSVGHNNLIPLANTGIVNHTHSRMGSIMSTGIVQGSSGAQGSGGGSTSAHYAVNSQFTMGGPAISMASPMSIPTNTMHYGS

[6] = target: CDK1/Cyclin E (Homo sapiens) (UniProt P06493+P24864); experiment: Selectivity interaction (NanoBRET assay in HEK293T cells) EUB0000121b CDK1; assay type: cell-based; settings: HEK-293T, at 10 µM
[7] = target: CDK18/Cyclin Y (Homo sapiens) (UniProt Q07002+Q8ND76); experiment: Selectivity interaction (NanoBRET assay in HEK293T cells) EUB0000121b CDK18; assay type: cell-based; settings: HEK-293T, at 10 µM
[8] = target: Cyclin-dependent kinase 13/Cyclin-K (Homo sapiens) (UniProt Q14004+O75909); experiment: Selectivity interaction (NanoBRET assay in HEK293T cells) EUB0000121b CDK13; assay type: cell-based; settings: HEK-293T, at 10 µM
[9] = target: CDK11A/Cyclin L2 (Homo sapiens) (UniProt Q9UQ88+Q96S94); experiment: Selectivity interaction (NanoBRET assay in HEK293T cells) EUB0000121b CDK11A; assay type: cell-based; settings: HEK-293T, at 10 µM
[10] = target: CDK11B/Cyclin L2 (Homo sapiens) (UniProt P21127+Q96S94); experiment: Selectivity interaction (NanoBRET assay in HEK293T cells) EUB0000121b CDK11B; assay type: cell-based; settings: HEK-293T, at 10 µM
[11] = target: T2, Glycogen synthase kinase-3 alpha (Homo sapiens, UniProt P49840); experiment: (§1) Selectivity interaction (Radiometric assay (Reaction Biology)) EUB0000121b GSK3A
[12] = target: T3, CDK7/Cyclin H/MNAT1 (Homo sapiens, UniProt P50613); experiment: Selectivity interaction (LanthaScreen Eu Kinase Binding Assay (Invitrogen)) EUB0000121b CDK7; assay type: protein-complex assay
[13] = target: Cyclin-dependent kinase 2/cyclin A (Homo sapiens, UniProt P24941); experiment: Selectivity interaction (LanthaScreen Eu Kinase Binding Assay (Invitrogen)) EUB0000121b CDK2; assay type: protein-complex assay
[14] = target: CDK15/Cyclin Y (Homo sapiens) (UniProt Q96Q40+Q8ND76); experiment: Selectivity interaction (NanoBRET assay in HEK293T cells) EUB0000121b CDK15; assay type: cell-based; settings: HEK-293T, at 10 µM
[15] = target: T4, Mitogen-activated protein kinase kinase kinase kinase 4 (Homo sapiens, UniProt O95819); experiment: (§2) Selectivity interaction (Radiometric assay (Reaction Biology)) EUB0000121b MAP4K4
[16] = target: T2, Glycogen synthase kinase-3 alpha; experiment: as §1; settings: at 10 µM
[17] = target: CDK6/cyclin D1 (Homo sapiens) (UniProt P24385+Q00534); experiment: Selectivity interaction (NanoBRET assay in HEK293T cells) EUB0000121b CDK6; assay type: cell-based; settings: HEK-293T, at 10 µM
[18] = target: Cyclin-C/Cyclin-dependent kinase 19 (Homo sapiens) (UniProt Q9BWU1+P24863); experiment: Selectivity interaction (NanoBRET assay in HEK293T cells) EUB0000121b CDK19; assay type: cell-based; settings: HEK-293T, at 10 µM
[19] = target: T5, Tyrosine-protein kinase ABL2 (Homo sapiens, UniProt P42684); experiment: (§3) Selectivity interaction (Radiometric assay (Reaction Biology)) EUB0000121b ABL2; settings: at 10 µM
[20] = target: Cyclin-dependent kinase 4/cyclin D1 (Homo sapiens) (UniProt P11802+P24385); experiment: Selectivity interaction (NanoBRET assay in HEK293T cells) EUB0000121b CDK4; assay type: cell-based; settings: HEK-293T, at 10 µM
[21] = target: CDK3/Cyclin E (Homo sapiens) (UniProt P24864+Q00526); experiment: Selectivity interaction (NanoBRET assay in HEK293T cells) EUB0000121b CDK3; assay type: cell-based; settings: HEK-293T, at 10 µM
[22] = target: Cyclin-Y/Cyclin-dependent kinase 16 (Homo sapiens) (UniProt Q00536+Q8ND76); experiment: Selectivity interaction (NanoBRET assay in HEK293T cells) EUB0000121b CDK16; assay type: cell-based; settings: HEK-293T, at 10 µM
[23] = target: Cyclin-dependent kinase 2/cyclin E1 (Homo sapiens) (UniProt P24864+P24941); experiment: Selectivity interaction (NanoBRET assay in HEK293T cells) EUB0000121b CDK2; assay type: cell-based; settings: HEK-293T, at 10 µM
[24] = target: CDK12/Cyclin K (Homo sapiens) (UniProt O75909+Q9NYV4); experiment: Selectivity interaction (NanoBRET assay in HEK293T cells) EUB0000121b CDK12; assay type: cell-based; settings: HEK-293T, at 10 µM
[25] = target: Cyclin-dependent kinase 14/Cyclin-Y (Homo sapiens) (UniProt O94921+Q8ND76); experiment: Selectivity interaction (NanoBRET assay in HEK293T cells) EUB0000121b CDK14; assay type: cell-based; settings: HEK-293T, at 10 µM
[26] = target: T4, Mitogen-activated protein kinase kinase kinase kinase 4; experiment: as §2; settings: at 10 µM
[27] = target: CDK9/Cyclin K (Homo sapiens) (UniProt P50750+O75909); experiment: Selectivity interaction (NanoBRET assay in HEK293T cells) EUB0000121b CDK9; assay type: cell-based; settings: HEK-293T, at 10 µM
[28] = target: CDK10/Cyclin L2 (Homo sapiens) (UniProt Q15131+Q96S94); experiment: Selectivity interaction (NanoBRET assay in HEK293T cells) EUB0000121b CDK10; assay type: cell-based; settings: HEK-293T, at 10 µM
[29] = target: T3, CDK7/Cyclin H/MNAT1; experiment: Selectivity interaction ( In-vitro potency (TR-FRET-based LANCE Ultra assay)) EUB0000121b CDK7; assay type: protein-complex assay
[30] = target: CDK20/Cyclin H (Homo sapiens) (UniProt P51946+Q8IZL9); experiment: Selectivity interaction (NanoBRET assay in HEK293T cells) EUB0000121b CDK20; assay type: cell-based; settings: HEK-293T, at 10 µM
[31] = target: CDK17/Cyclin-Y (Homo sapiens) (UniProt Q00537+Q8ND76); experiment: Selectivity interaction (NanoBRET assay in HEK293T cells) EUB0000121b CDK17; assay type: cell-based; settings: HEK-293T, at 10 µM
[32] = target: Cyclin-dependent kinase 5/CDK5 activator 1 (Homo sapiens) (UniProt Q00535+Q15078); experiment: Selectivity interaction (NanoBRET assay in HEK293T cells) EUB0000121b CDK5; assay type: cell-based; settings: HEK-293T, at 10 µM
[33] = target: CDK6/cyclin D3 (Homo sapiens, UniProt Q00534); experiment: Selectivity interaction ( In-vitro potency (TR-FRET-based LANCE Ultra assay)) EUB0000121b CDK6; assay type: protein-complex assay
[34] = target: Calcium/calmodulin-dependent protein kinase type IV (Homo sapiens, UniProt Q16566); experiment: Selectivity interaction (Radiometric assay (Reaction Biology)) EUB0000121b CAMK4
[35] = target: CDK8/Cyclin C (Homo sapiens) (UniProt P49336+P24863); experiment: Selectivity interaction (NanoBRET assay in HEK293T cells) EUB0000121b CDK8; assay type: cell-based; settings: HEK-293T, at 10 µM
[36] = target: Cyclin-dependent kinase 7 (Homo sapiens, UniProt P50613); experiment: Selectivity interaction (NanoBRET assay in HEK293T cells) EUB0000121b CDK7; assay type: cell-based; settings: HEK-293T, at 10 µM
[37] = target: T5, Tyrosine-protein kinase ABL2; experiment: as §3

T3 sequence (P51946 whole entry): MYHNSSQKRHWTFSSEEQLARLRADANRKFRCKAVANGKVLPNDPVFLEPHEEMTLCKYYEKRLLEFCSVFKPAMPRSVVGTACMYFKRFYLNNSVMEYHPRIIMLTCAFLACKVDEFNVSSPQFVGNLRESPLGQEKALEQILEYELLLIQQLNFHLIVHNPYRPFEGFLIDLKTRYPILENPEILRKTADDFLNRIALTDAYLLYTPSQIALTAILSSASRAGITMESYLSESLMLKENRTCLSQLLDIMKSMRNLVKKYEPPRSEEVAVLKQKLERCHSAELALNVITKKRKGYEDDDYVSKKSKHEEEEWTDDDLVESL
T3 sequence (P50613 whole entry): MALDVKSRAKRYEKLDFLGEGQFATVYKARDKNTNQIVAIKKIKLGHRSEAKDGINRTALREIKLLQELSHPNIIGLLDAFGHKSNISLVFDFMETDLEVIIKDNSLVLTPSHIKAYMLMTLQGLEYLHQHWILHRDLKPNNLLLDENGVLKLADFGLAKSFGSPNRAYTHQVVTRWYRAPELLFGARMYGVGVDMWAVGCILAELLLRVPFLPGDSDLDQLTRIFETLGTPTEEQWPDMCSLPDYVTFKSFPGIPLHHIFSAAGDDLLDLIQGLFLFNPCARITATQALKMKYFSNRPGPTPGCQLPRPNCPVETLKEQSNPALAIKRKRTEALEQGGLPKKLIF
T3 sequence (P51948 whole entry, further chain): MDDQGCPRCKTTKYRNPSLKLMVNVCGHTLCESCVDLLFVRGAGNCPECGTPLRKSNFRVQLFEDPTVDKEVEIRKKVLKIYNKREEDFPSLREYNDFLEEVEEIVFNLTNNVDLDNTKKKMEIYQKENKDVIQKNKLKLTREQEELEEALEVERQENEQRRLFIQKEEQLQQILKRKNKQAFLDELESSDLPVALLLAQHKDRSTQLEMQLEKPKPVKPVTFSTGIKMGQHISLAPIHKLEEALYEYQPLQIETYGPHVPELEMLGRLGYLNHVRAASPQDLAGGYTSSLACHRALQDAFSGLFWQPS
T5 sequence (P42684 whole entry): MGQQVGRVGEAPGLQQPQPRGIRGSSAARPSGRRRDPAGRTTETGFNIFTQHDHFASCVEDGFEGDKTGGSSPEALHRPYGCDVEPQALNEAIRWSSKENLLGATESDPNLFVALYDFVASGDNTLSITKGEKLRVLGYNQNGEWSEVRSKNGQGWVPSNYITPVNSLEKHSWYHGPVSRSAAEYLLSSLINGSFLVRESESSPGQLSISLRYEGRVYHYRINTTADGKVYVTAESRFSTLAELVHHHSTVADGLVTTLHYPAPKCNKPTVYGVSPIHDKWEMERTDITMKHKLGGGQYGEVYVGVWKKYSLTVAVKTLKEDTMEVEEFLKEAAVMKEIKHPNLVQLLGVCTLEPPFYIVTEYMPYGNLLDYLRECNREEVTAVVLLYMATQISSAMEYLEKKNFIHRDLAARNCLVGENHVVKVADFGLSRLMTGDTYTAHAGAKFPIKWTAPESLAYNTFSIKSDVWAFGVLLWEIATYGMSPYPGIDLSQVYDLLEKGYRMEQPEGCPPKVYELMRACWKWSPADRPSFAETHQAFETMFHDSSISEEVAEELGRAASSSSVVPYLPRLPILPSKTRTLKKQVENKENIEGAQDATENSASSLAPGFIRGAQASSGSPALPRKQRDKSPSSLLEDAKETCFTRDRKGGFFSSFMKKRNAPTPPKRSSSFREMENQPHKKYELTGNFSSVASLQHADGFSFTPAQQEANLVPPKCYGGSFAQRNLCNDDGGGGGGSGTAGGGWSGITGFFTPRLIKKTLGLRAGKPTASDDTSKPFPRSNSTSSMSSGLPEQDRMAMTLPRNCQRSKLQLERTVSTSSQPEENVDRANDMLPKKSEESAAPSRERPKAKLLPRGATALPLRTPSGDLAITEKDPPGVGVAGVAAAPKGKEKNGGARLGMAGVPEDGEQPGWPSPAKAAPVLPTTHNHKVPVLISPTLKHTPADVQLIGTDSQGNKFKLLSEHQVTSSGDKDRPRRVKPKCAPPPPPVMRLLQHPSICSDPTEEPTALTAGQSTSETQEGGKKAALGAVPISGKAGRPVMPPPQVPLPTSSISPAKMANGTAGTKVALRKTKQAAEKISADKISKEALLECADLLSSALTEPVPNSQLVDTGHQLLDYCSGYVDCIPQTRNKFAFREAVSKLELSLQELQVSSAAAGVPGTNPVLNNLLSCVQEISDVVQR
Chain of Protein arginine N-methyltransferase 6 (Q96LA8 whole entry): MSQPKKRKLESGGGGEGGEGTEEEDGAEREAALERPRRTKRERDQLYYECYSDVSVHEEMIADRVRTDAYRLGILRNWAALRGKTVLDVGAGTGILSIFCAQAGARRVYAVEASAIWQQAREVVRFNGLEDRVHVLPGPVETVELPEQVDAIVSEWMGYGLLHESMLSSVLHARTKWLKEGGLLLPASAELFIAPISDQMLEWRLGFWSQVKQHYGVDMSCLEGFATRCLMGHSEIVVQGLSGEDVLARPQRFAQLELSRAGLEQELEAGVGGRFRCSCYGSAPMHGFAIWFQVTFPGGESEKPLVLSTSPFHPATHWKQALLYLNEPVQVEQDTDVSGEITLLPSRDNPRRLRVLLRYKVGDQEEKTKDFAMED
Chain of CDK12/Cyclin K (Homo sapiens) (O75909 whole entry, looked up): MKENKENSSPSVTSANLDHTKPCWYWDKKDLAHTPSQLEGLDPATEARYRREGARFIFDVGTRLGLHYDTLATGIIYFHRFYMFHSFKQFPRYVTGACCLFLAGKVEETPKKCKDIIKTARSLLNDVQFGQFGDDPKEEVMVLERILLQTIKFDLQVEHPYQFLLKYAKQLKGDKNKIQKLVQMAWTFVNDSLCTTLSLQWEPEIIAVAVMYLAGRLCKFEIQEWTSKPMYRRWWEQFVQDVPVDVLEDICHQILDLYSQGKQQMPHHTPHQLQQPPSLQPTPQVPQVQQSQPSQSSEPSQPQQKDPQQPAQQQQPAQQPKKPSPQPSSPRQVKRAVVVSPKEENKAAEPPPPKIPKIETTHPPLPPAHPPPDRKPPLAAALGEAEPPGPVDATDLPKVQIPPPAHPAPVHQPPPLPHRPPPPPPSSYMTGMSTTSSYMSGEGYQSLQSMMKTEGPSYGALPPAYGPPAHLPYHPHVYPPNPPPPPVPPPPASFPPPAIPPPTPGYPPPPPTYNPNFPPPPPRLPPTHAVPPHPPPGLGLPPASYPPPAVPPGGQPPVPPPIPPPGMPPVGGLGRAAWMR
Chain of CDK12/Cyclin K (Homo sapiens) (Q9NYV4 whole entry, looked up): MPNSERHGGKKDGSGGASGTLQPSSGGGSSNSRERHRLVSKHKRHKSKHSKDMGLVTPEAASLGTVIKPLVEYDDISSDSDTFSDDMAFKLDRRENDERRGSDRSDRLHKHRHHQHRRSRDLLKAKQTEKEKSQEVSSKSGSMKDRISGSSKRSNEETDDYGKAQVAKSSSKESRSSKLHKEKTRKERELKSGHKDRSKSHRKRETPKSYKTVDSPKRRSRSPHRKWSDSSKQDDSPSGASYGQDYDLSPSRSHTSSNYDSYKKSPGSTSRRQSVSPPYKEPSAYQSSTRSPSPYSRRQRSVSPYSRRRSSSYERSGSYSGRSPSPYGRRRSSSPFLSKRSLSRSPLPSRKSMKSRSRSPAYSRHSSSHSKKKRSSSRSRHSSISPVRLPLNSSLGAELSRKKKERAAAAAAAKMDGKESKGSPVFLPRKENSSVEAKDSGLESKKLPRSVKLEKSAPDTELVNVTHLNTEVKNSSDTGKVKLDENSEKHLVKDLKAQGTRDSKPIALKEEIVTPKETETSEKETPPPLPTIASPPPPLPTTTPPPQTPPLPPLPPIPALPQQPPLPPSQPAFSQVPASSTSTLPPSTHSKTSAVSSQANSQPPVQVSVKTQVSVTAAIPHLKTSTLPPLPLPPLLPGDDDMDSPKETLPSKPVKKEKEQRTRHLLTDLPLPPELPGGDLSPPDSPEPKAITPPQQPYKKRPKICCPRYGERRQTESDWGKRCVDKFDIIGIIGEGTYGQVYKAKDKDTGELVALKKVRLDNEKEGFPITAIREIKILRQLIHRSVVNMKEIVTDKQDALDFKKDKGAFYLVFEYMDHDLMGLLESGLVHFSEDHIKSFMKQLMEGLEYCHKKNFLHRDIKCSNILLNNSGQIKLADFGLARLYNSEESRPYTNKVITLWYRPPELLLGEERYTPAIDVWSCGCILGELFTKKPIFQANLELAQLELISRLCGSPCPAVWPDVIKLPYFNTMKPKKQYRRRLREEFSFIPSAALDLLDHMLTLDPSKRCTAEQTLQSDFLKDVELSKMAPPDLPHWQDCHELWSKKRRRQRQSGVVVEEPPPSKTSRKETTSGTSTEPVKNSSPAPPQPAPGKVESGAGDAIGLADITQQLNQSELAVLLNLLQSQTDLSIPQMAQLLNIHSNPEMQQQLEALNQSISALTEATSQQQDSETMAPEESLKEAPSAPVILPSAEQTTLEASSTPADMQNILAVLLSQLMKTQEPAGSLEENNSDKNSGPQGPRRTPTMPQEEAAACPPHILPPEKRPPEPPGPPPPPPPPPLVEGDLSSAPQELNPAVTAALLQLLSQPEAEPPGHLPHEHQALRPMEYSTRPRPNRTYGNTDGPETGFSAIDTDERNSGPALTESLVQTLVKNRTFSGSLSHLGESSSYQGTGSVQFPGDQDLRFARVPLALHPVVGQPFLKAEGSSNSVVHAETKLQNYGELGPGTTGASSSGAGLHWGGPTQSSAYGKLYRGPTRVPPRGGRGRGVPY
Chain of Protein arginine N-methyltransferase 8 (Q9NR22 whole entry): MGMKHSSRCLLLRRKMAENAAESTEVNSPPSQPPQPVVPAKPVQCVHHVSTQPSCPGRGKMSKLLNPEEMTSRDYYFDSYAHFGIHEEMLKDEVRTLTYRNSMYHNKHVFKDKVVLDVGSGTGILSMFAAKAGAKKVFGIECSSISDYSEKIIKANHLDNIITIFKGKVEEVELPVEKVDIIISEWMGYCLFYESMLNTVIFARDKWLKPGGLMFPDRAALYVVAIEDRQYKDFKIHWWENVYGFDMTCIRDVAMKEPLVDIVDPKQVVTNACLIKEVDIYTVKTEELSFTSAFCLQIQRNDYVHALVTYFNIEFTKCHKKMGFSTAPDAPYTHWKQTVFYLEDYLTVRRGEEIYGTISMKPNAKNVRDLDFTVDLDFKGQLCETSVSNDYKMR
Chain of Cyclin-dependent kinase 7 (P50613 whole entry): as the sequence (P50613 whole entry) above

- IC50 [1]: > 20 µM
- IC50 [2]: > 20 µM
- IC50 [3]: > 20 µM
- IC50 [4]: > 20 µM
- IC50 [5]: > 20 µM
Compound: CC(C)Oc1ccc(-c2c[nH]cc2CN(C)CCO)cc1

- % of inhibition [6]: 31.6%
- % of inhibition [7]: 8.7%
- % of inhibition [8]: 10.2%
- % of inhibition [9]: 7.5%
- % of inhibition [10]: 10.2%
- IC50 [11]: 1.46 µM
- IC50 [12]: 16 µM
- IC50 [13]: 1.01 µM
- % of inhibition [14]: -1%
- IC50 [15]: 0.82 µM
- % of control [16]: 9.5%
- % of inhibition [17]: 38.7%
- % of inhibition [18]: 11.4%
- % of control [19]: 27%
- % of inhibition [20]: 44%
- % of inhibition [21]: 27.7%
- % of inhibition [22]: 14.8%
- % of inhibition [23]: 18.7%
- % of inhibition [24]: 22.1%
- % of inhibition [25]: -2.3%
- % of control [26]: 17.5%
- % of inhibition [27]: 88.8%
- % of inhibition [28]: 6.6%
- IC50 [29]: > 10 µM
- % of inhibition [30]: 14.5%
- % of inhibition [31]: 19%
- % of inhibition [32]: 11.4%
- IC50 [33]: > 10 µM
- IC50 [34]: > 20 µM
- % of inhibition [35]: 5.3%
- % of inhibition [36]: -9.3%
- IC50 [37]: 3.64 µM
Compound: COc1ccccc1-c1cc(Nc2cccc(CS(N)(=O)=O)c2)ncn1
